Assay results published in patent US9394446B2, “Method for recovering Ru complex dye from used dye solution” (Tanaka Kikinzoku Kogyo K.K., priority 2012, dated 2016).

Assays:
[1] = Preliminary test: dissolving property of dye solution components in ether-based solvents, alkane-based solvents and water; details: for dissolving property in Dibutyl ether: 1 mg (solvents: 1 mL) in 1 mL dibutyl ether; for dissolving property in Dibutyl ether / dissolving property in Diethyl ether / dissolving property in Diisopropyl ether / dissolving property in Heptane / dissolving property in Hexane / dissolving property in Isoamyl ether / dissolving property in Methyl propyl ether / dissolving property in Octane / dissolving property in Pentane / dissolving property in t-Butyl methyl ether / dissolving property in Water: 25° C.; for dissolving property in Diethyl ether: 1 mg (solvents: 1 mL) in 1 mL diethyl ether; for dissolving property in Diisopropyl ether: 1 mg (solvents: 1 mL) in 1 mL diisopropyl ether; for dissolving property in Heptane: 1 mg (solvents: 1 mL) in 1 mL heptane; for dissolving property in Hexane: 1 mg (solvents: 1 mL) in 1 mL hexane; for dissolving property in Isoamyl ether: 1 mg (solvents: 1 mL) in 1 mL isoamyl ether; for dissolving property in Methyl propyl ether: 1 mg (solvents: 1 mL) in 1 mL methyl propyl ether; for dissolving property in Octane: 1 mg (solvents: 1 mL) in 1 mL octane; for dissolving property in Pentane: 1 mg (solvents: 1 mL) in 1 mL pentane; for dissolving property in t-Butyl methyl ether: 1 mg (solvents: 1 mL) in 1 mL t-butyl methyl ether; for dissolving property in Water: 1 mg (solvents: 1 mL) in 1 mL water, for comparison
[2] = Mixing/dissolving behaviour of DMSO in ethers (inventors' observation); assay type: physicochemical

Structure (SMILES) | dissolving property in Dibutyl ether [1] | dissolving property in Diethyl ether [1] | dissolving property in Diisopropyl ether [1] | dissolving property in Heptane [1] | dissolving property in Hexane [1] | dissolving property in Isoamyl ether [1] | dissolving property in Methyl propyl ether [1] | dissolving property in Octane [1] | dissolving property in Pentane [1] | dissolving property in t-Butyl methyl ether [1] | dissolving property of isoamyl ether, in words ([1]; isoamyl ether (C5H11—O—C5H11)) | dissolving property of octane, in words ([1]; octane with a carbon number of 8) | mixing or dissolving in ethers (diethyl ether), in words [2] | dissolving property in Water [1]
C[C@H](CCC(=O)O)[C@H]1CC[C@H]2[C@@H]3[C@H](O)C[C@@H]4C[C@H](O)CC[C@]4(C)[C@H]3CC[C@]12C [CDCA, chenodeoxychloic acid] | ◯ (those having solubility of 0.05 g/L or more but less than 5 g/L and those miscible with a solvent for dye solution were labeled as “∘” with good dissolving property) | ⊙ (those dissolved at 5 g/L or more and those fully miscible with a solvent for dye solution were labeled as “⊙” with excellent dissolving property) | ⊙ (those dissolved at 5 g/L or more and those fully miscible with a solvent for dye solution were labeled as “⊙” with excellent dissolving property) | ◯ (those having solubility of 0.05 g/L or more but less than 5 g/L and those miscible with a solvent for dye solution were labeled as “∘” with good dissolving property) | ◯ (those having solubility of 0.05 g/L or more but less than 5 g/L and those miscible with a solvent for dye solution were labeled as “∘” with good dissolving property) | Δ (those having the solubility of less than 0.05 g/L were labeled as “Δ” with fair dissolving property) | ⊙ (those dissolved at 5 g/L or more and those fully miscible with a solvent for dye solution were labeled as “⊙” with excellent dissolving property) | Δ (those having the solubility of less than 0.05 g/L were labeled as “Δ” with fair dissolving property) | ◯ (those having solubility of 0.05 g/L or more but less than 5 g/L and those miscible with a solvent for dye solution were labeled as “∘” with good dissolving property) | ⊙ (those dissolved at 5 g/L or more and those fully miscible with a solvent for dye solution were labeled as “⊙” with excellent dissolving property) | slightly inferior dissolving property | poor dissolving property | – | –
CCCCOc1ccc(-c2ccc(N(c3ccc(-c4ccc(C=C(C#N)C(=O)O)s4)cc3)c3ccc(-c4ccc(OCCCC)cc4OCCCC)cc3)cc2)c(OCCCC)c1 [D35] | ◯ (those having solubility of 0.05 g/L or more but less than 5 g/L and those miscible with a solvent for dye solution were labeled as “∘” with good dissolving property) | ⊙ (those dissolved at 5 g/L or more and those fully miscible with a solvent for dye solution were labeled as “⊙” with excellent dissolving property) | ⊙ (those dissolved at 5 g/L or more and those fully miscible with a solvent for dye solution were labeled as “⊙” with excellent dissolving property) | Δ (those having the solubility of less than 0.05 g/L were labeled as “Δ” with fair dissolving property) | Δ (those having the solubility of less than 0.05 g/L were labeled as “Δ” with fair dissolving property) | Δ (those having the solubility of less than 0.05 g/L were labeled as “Δ” with fair dissolving property) | ⊙ (those dissolved at 5 g/L or more and those fully miscible with a solvent for dye solution were labeled as “⊙” with excellent dissolving property) | Δ (those having the solubility of less than 0.05 g/L were labeled as “Δ” with fair dissolving property) | Δ (those having the solubility of less than 0.05 g/L were labeled as “Δ” with fair dissolving property) | ⊙ (those dissolved at 5 g/L or more and those fully miscible with a solvent for dye solution were labeled as “⊙” with excellent dissolving property) | – | – | – | –
C[S+](C)[O-] [DMSO, dimethyl sulfoxide] | – | – | – | – | – | – | – | – | – | – | – | – | hardly mixed or dissolved | –
CC#N [Acetonitrile, acetonitrile] | ⊙ (those dissolved at 5 g/L or more and those fully miscible with a solvent for dye solution were labeled as “⊙” with excellent dissolving property) | ⊙ (those dissolved at 5 g/L or more and those fully miscible with a solvent for dye solution were labeled as “⊙” with excellent dissolving property) | ⊙ (those dissolved at 5 g/L or more and those fully miscible with a solvent for dye solution were labeled as “⊙” with excellent dissolving property) | ⊙ (those dissolved at 5 g/L or more and those fully miscible with a solvent for dye solution were labeled as “⊙” with excellent dissolving property) | ⊙ (those dissolved at 5 g/L or more and those fully miscible with a solvent for dye solution were labeled as “⊙” with excellent dissolving property) | ⊙ (those dissolved at 5 g/L or more and those fully miscible with a solvent for dye solution were labeled as “⊙” with excellent dissolving property) | ⊙ (those dissolved at 5 g/L or more and those fully miscible with a solvent for dye solution were labeled as “⊙” with excellent dissolving property) | ⊙ (those dissolved at 5 g/L or more and those fully miscible with a solvent for dye solution were labeled as “⊙” with excellent dissolving property) | ⊙ (those dissolved at 5 g/L or more and those fully miscible with a solvent for dye solution were labeled as “⊙” with excellent dissolving property) | ⊙ (those dissolved at 5 g/L or more and those fully miscible with a solvent for dye solution were labeled as “⊙” with excellent dissolving property) | – | – | – | ⊙ (those dissolved at 5 g/L or more and those fully miscible with a solvent for dye solution were labeled as “⊙” with excellent dissolving property)
CC(C)(C)CCP(=O)(O)CCC(C)(C)C [DINHOP, bis-(3,3-dimethyl-butyl)-phosphinic acid] | ⊙ (those dissolved at 5 g/L or more and those fully miscible with a solvent for dye solution were labeled as “⊙” with excellent dissolving property) | ⊙ (those dissolved at 5 g/L or more and those fully miscible with a solvent for dye solution were labeled as “⊙” with excellent dissolving property) | ⊙ (those dissolved at 5 g/L or more and those fully miscible with a solvent for dye solution were labeled as “⊙” with excellent dissolving property) | ⊙ (those dissolved at 5 g/L or more and those fully miscible with a solvent for dye solution were labeled as “⊙” with excellent dissolving property) | ⊙ (those dissolved at 5 g/L or more and those fully miscible with a solvent for dye solution were labeled as “⊙” with excellent dissolving property) | ⊙ (those dissolved at 5 g/L or more and those fully miscible with a solvent for dye solution were labeled as “⊙” with excellent dissolving property) | ⊙ (those dissolved at 5 g/L or more and those fully miscible with a solvent for dye solution were labeled as “⊙” with excellent dissolving property) | ⊙ (those dissolved at 5 g/L or more and those fully miscible with a solvent for dye solution were labeled as “⊙” with excellent dissolving property) | ⊙ (those dissolved at 5 g/L or more and those fully miscible with a solvent for dye solution were labeled as “⊙” with excellent dissolving property) | ⊙ (those dissolved at 5 g/L or more and those fully miscible with a solvent for dye solution were labeled as “⊙” with excellent dissolving property) | – | – | – | Δ (those having the solubility of less than 0.05 g/L were labeled as “Δ” with fair dissolving property)
CCO [Ethanol, ethanol] | ⊙ (those dissolved at 5 g/L or more and those fully miscible with a solvent for dye solution were labeled as “⊙” with excellent dissolving property) | ⊙ (those dissolved at 5 g/L or more and those fully miscible with a solvent for dye solution were labeled as “⊙” with excellent dissolving property) | ⊙ (those dissolved at 5 g/L or more and those fully miscible with a solvent for dye solution were labeled as “⊙” with excellent dissolving property) | ⊙ (those dissolved at 5 g/L or more and those fully miscible with a solvent for dye solution were labeled as “⊙” with excellent dissolving property) | ⊙ (those dissolved at 5 g/L or more and those fully miscible with a solvent for dye solution were labeled as “⊙” with excellent dissolving property) | ⊙ (those dissolved at 5 g/L or more and those fully miscible with a solvent for dye solution were labeled as “⊙” with excellent dissolving property) | ⊙ (those dissolved at 5 g/L or more and those fully miscible with a solvent for dye solution were labeled as “⊙” with excellent dissolving property) | ⊙ (those dissolved at 5 g/L or more and those fully miscible with a solvent for dye solution were labeled as “⊙” with excellent dissolving property) | ⊙ (those dissolved at 5 g/L or more and those fully miscible with a solvent for dye solution were labeled as “⊙” with excellent dissolving property) | ⊙ (those dissolved at 5 g/L or more and those fully miscible with a solvent for dye solution were labeled as “⊙” with excellent dissolving property) | – | – | – | ⊙ (those dissolved at 5 g/L or more and those fully miscible with a solvent for dye solution were labeled as “⊙” with excellent dissolving property)
